Like-named read-outs stand apart in the source and are kept apart here.
Columns and labels:
[1] = molecular target: T1, human HDAC3/SMRT heterodimer (Homo sapiens (Human), UniProt O15379); assay: biochemical
HDAC6 [2] = molecular target: T2, HDAC6 (Homo sapiens (Human), UniProt Q9UBN7); assay: biochemical
human HDAC8 = human HDAC8 (Homo sapiens (Human), UniProt Q9BY41); assay: HDAC8 inhibition assay (modified FLUOR DE LYS, 384-well); assay type: biochemical
Method: The histone deacetylase activities of HDAC1, HDAC2, HDAC3, HDAC6, and HDAC8 were measured in modified FLUOR DE LYS assays in 384-well format. In this assay, HDAC enzymes are initially incubated with an F-acetyl (or -trifluoroacetyl)-L-lysine-containing substrate with a C-terminal amide having aminomethylcoumarin as the amine component. HDACs cleave the F-acetyl group, rendering the resulting product susceptible to AMC cleavage by trypsin. The released AMC is then detected by its fluorescence. […] All steps were performed at room temperature (23° C.). The assay was performed by pre-incubating serial dilutions of test compounds with the target HDAC prior to initiation with substrate. […] Final conditions used for each assay were: 1. […] The reactions were stopped and developed by addition of 30 ul of HDAC developer solution containing a saturating level of HDAC inhibitor as follows: 1. […] For data analysis, background subtracted product (fluorescence) vs. time data for each inhibitor concentration was fitted using a 4-parameter fit.

human HDAC2 = human HDAC2 (Homo sapiens (Human), UniProt Q92769); assay: HDAC2 inhibition assay (modified FLUOR DE LYS, 384-well); assay type: biochemical
KARN cells (Jurkat 2C4) = assay: cells; settings: Homo sapiens
Method: KARN Assay Cell Maintenance
KARN cells (Jurkat 2C4) were licensed from the laboratory of Dr. John Karn, Case Western Reserve University, School of Medicine. […] An atmosphere of 5% CO2 and 90% humidity was used for all culture work.
These flasks were returned to the incubator.
The cells were gently resuspended in assay media (30 ml) and pelleted again. […] The cells were counted using the ViCell (Beckman Coulter) and diluted as necessary. […] The plates were covered and returned to the incubator prior to compound addition.
The reference compounds, DMSO and SAHA were then added to the compound plate. […] The final high concentration for SAHA and the test compounds in the assays was 40 μM. The final DMSO concentration in all wells was 0.4%. The minimal induction reference compound used was DMSO and the maximal induction reference compound used was SAHA (2 μM final concentration in the assay).
Day 3: The luciferase detection reagent was prepared by transferring the contents of one bottle of Steady-Glo buffer to one bottle of Steady-Glo aubstrate (Steady-Glo Luciferase Assay System, Promega, catalog number E2520), followed by gently mixing until the substrate was thoroughly dissolved and the solution was equilibrated to room temperature. […] The Steady-Glo Reagent was added to the plates (30 μl/well), which were then covered with a black lid and incubated for 10 minutes at room temperature. The plates were then read for luminescence on an Envision (Perkin Elmer) using the ultrasensitive mode (US LUM), 0.1 counts per second and 384-well aperture. Luminescence counts in the DMSO reference wells were considered as 0% induction, while those in the 2 μM SAHA reference wells were considered as 100% induction. Dose response curves were plotted as test compound concentration (X-axis) vs. percent activation (Y-axis) using a 4-parameter fit based on the Levenberg-Marquardt algorithm.

human HDAC1 [3] = molecular target: T3, human HDAC1 (Homo sapiens (Human), UniProt Q13547); assay: biochemical
[4] = molecular target: T1, human HDAC3/SMRT heterodimer
HDAC6 [5] = molecular target: T2, HDAC6
human HDAC1 [6] = molecular target: T3, human HDAC1
[7] = […] nM enzyme, 200 μM substrate BML-KI178, 3 h pre-incubation, read-out: HDAC8 IC50
[8] = […] nM enzyme, 40 μM substrate BML-KI104, 3 h pre-incubation, read-out: HDAC2 IC50
[9] = read-out: Karn EC50 nM 0.1% NHS, 0.1% normal human serum, luciferase induction, 2 μM SAHA = 100%
[10] = read-out: Karn EC50 nM 5% NHS, 5% normal human serum, luciferase induction, 2 μM SAHA = 100%
[11] = […] enzyme, 200 μM substrate BML-KI178, 3 h pre-incubation, read-out: HDAC8 IC50
[12] = […] enzyme, 40 μM substrate BML-KI104, 3 h pre-incubation, read-out: HDAC2 IC50

T2 sequence (Q9UBN7 whole entry): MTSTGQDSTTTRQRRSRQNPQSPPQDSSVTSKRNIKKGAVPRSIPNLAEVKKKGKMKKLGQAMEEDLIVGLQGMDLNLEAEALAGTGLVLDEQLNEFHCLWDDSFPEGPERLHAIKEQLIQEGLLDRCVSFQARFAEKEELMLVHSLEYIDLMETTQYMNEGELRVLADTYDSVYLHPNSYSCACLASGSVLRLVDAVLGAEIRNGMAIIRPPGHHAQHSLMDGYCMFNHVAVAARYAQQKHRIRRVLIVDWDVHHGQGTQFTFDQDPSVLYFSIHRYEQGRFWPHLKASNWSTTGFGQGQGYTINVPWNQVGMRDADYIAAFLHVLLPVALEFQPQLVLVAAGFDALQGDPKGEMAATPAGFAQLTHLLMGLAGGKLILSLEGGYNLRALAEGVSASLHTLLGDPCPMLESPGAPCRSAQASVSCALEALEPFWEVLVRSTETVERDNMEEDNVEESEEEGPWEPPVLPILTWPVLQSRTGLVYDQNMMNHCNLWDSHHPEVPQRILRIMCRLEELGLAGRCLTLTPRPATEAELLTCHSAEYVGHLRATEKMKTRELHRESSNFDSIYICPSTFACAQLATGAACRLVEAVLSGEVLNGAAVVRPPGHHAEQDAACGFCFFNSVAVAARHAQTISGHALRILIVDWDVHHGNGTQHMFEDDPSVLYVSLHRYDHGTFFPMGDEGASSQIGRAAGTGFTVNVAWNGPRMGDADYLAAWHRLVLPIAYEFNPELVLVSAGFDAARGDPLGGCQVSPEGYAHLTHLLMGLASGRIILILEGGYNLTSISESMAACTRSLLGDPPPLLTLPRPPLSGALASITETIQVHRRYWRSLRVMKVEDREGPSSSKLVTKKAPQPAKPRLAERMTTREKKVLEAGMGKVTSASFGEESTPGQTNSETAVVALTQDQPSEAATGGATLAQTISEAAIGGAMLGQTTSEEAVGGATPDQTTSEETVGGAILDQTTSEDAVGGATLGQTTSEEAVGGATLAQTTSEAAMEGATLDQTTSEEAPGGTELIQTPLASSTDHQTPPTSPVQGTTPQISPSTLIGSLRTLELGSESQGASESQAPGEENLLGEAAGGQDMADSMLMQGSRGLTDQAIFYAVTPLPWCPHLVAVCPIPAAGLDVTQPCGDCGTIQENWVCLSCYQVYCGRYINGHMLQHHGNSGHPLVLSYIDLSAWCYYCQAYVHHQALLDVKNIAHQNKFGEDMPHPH
T3 sequence (Q13547 whole entry): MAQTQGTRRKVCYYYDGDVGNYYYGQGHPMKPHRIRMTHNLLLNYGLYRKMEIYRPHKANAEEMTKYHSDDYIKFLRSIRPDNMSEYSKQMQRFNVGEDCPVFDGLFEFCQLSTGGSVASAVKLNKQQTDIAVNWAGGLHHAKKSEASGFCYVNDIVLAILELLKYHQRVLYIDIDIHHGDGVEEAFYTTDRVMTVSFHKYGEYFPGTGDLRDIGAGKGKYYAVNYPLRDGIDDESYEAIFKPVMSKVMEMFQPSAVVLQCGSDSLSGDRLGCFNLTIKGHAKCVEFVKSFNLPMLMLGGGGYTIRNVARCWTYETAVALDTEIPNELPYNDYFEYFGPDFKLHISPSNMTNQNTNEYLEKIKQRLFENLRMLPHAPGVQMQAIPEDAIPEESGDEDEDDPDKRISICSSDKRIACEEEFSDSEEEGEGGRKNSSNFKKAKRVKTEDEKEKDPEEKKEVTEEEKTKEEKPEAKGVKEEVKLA
T1 sequence (O15379 whole entry): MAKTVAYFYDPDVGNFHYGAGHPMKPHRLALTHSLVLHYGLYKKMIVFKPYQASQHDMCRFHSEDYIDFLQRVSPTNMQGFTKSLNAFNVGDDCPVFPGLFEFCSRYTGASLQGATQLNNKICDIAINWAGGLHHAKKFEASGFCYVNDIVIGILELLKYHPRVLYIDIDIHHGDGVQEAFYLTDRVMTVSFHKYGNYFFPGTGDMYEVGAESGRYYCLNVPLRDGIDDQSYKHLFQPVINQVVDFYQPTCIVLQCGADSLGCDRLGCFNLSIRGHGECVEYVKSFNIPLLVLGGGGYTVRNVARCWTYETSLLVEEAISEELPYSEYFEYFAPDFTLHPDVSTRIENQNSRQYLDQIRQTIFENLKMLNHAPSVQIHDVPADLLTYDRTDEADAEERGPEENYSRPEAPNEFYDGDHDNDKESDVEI
T1 sequence (Q9Y618 1-899 partner): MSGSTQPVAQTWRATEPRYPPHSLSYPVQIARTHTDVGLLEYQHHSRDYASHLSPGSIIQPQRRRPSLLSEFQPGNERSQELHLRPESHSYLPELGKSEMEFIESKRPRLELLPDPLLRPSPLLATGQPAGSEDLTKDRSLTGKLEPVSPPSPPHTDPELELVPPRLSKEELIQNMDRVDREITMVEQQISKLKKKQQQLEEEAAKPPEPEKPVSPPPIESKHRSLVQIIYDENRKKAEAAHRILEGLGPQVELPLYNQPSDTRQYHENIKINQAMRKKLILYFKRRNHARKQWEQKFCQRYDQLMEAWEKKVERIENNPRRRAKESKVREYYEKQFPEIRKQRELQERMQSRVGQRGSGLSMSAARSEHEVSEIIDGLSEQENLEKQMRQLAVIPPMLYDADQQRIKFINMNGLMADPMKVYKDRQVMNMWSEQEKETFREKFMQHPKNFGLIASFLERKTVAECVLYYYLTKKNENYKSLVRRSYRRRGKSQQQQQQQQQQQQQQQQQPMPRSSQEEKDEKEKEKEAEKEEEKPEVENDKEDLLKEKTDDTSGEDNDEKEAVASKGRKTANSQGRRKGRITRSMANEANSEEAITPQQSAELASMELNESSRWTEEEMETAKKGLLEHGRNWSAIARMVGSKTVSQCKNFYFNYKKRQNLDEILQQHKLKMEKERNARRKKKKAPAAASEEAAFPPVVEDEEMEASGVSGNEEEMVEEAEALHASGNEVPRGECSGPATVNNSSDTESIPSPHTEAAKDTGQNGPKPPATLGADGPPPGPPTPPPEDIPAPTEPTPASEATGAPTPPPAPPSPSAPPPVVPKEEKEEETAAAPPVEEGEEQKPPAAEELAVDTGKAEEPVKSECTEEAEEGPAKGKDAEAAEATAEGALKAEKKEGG
Sequence of human HDAC8 (Q9BY41 whole entry): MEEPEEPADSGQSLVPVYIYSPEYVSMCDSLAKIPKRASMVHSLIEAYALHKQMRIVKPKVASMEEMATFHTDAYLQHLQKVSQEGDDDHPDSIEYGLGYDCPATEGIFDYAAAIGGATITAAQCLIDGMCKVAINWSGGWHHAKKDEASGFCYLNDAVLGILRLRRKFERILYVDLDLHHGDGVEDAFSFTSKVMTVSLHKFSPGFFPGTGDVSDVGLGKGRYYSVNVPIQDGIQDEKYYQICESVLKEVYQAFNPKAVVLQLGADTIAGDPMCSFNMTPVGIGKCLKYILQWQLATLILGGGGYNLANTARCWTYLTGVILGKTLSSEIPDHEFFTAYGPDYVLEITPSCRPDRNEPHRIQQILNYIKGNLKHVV
Sequence of human HDAC2 (Q92769 whole entry): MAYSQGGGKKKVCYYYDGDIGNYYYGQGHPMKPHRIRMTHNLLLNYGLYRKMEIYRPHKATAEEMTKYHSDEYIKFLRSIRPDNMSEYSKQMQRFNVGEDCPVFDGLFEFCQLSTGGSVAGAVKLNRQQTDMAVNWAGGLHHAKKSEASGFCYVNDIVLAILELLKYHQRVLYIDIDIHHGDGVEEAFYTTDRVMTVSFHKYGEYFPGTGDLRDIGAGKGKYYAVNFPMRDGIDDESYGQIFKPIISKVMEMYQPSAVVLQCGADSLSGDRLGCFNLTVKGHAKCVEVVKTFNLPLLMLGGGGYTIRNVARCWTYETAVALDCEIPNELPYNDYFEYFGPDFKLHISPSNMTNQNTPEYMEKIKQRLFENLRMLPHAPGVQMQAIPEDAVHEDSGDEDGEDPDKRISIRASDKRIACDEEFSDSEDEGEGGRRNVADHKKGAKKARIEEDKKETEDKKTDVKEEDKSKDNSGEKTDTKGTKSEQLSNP

| SMILES | IC50 [1] | IC50 (HDAC6 [2]) | IC50 (human HDAC8; [7]) | IC50 (human HDAC2; [8]) | EC50 (KARN cells (Jurkat 2C4); [9]) | EC50 (KARN cells (Jurkat 2C4); [10]) | IC50 (human HDAC1 [3]) | IC50 (human HDAC8) | IC50 (human HDAC2) | EC50 (KARN cells (Jurkat 2C4); read-out: Karn EC50 nM 0.1% NHS) | EC50 (KARN cells (Jurkat 2C4); read-out: Karn EC50 nM 5% NHS) | IC50 [4] | IC50 (HDAC6 [5]) | IC50 (human HDAC1 [6]) | IC50 (human HDAC8; [11]) | IC50 (human HDAC2; [12]) |
| --- | --- | --- | --- | --- | --- | --- | --- | --- | --- | --- | --- | --- | --- | --- | --- | --- |
| COc1nc2ccccc2cc1-c1cnc(CCCCCCC(=O)c2ncco2)[nH]1 [Example 73, 7-(5-(2-methoxyquinolin-3-yl)-1H-imidazol-2-yl)-1-(oxazol-2-yl)heptan-1-one] | 4.2 nM | 2500 nM | 3900 nM | 16 nM | 840 nM | 15 nM | 3.3 nM |  |  |  |  |  |  |  |  |  |
| N#Cc1nc(-c2ccc(F)cc2)oc1[C@@H](N)CCCCCC(=O)c1ncco1 [Example 189, (S)-5-(1-amino-7-(oxazol-2-yl)-7-oxoheptyl)-2-(4-fluorophenyl)oxazole-4-carbonitrile] | 45 nM | ≥ 45000 nM | 25000 nM | 250 nM | 3000 nM | 7400 nM | 26 nM |  |  |  |  |  |  |  |  |  |
| COc1cc2ncccc2cc1-c1c[nH]c([C@@H](N)CCCCCC(=O)c2ccon2)n1 [Example 34, (S)-7-amino-1-(isoxazol-3-yl)-7-(4-(7-methoxyquinolin-6-yl)-1H-imidazol-2-yl)heptan-1-one] |  | 5600 nM | 120 nM | 5.1 nM | 23 nM | 44 nM | 1.4 nM |  |  |  |  |  |  |  |  |  |
| COc1ncccc1-c1c[nH]c([C@]2(CCCCCC(=O)c3ccon3)CCCC(=O)N2)n1 [Example 71, (S)-6-(6-(isoxazol-3-yl)-6-oxohexyl)-6-(4-(2-methoxypyridin-3-yl)-1H-imidazol-2-yl)piperidin-2-one] | 1.8 nM | > 900 nM | 690 nM | 6.1 nM | 330 nM | 490 nM | 1.19 nM |  |  |  |  |  |  |  |  |  |
| Cc1ccc2cc(-c3cnc([C@H](CCCCCC(=O)c4ncco4)N4CCOCC4)[nH]3)ccc2n1 [Example 83, (S)-7-(5-(2-methylquinolin-6-yl)-1H-imidazol-2-yl)-7-morpholino-1-(oxazol-2-yl)heptan-1-one] | 31 nM | ≥ 45000 nM | 12000 nM | 62 nM | 3400 nM | 4200 nM | 14 nM |  |  |  |  |  |  |  |  |  |
| O=C1CC[C@@](CCCCCC(=O)c2ccon2)(c2nc(-c3ccc(-c4ncco4)cc3F)c[nH]2)N1 [Example 67, (S)-5-(4-(2-fluoro-4-(oxazol-2-yl)phenyl)-1H-imidazol-2-yl)-5-(6-(isoxazol-3-yl)-6-oxohexyl)pyrrolidin-2-one] | 1.5 nM | ≥ 45000 nM | 400 nM | 4.3 nM | 51 nM | 95 nM | 1.8 nM |  |  |  |  |  |  |  |  |  |
| N[C@@H](CCCCCC(=O)c1cocn1)c1ncc(-c2ccccc2F)[nH]1 [Example 36, (S)-7-amino-7-(5-(2-fluorophenyl)-1H-imidazol-2-yl)-1-(oxazol-4-yl)heptan-1-one] |  | > 900 nM | > 900 nM |  |  |  |  |  |  |  |  |  |  |  |  |  |
| COc1cc2nc(C)ccc2cc1-c1cnc([C@@H](N)CCCCCC(=O)c2ncco2)o1 [Example 27, (S)-7-amino-7-(5-(7-methoxy-2-methylquinolin-6-yl)oxazol-2-yl)-1-(oxazol-2-yl)heptan-1-one] |  | 1110 nM | 1200 nM | 9.5 nM | 120 nM | 140 nM | 1.9 nM |  |  |  |  |  |  |  |  |  |
| Cc1ccc2cc(-c3c[nH]c([C@H](CCCCCC(=O)c4ncco4)NC4CCN(C)CC4)n3)ccc2n1 [Example 78, (S)-7-((1-methylpiperidin-4-yl)amino)-7-(5-(2-methylquinolin-6-yl)-1H-imidazol-2-yl)-1-(oxazol-2-yl)heptan-1-one] |  | ≥ 45000 nM |  |  |  |  | 2.8 nM | 6900 nM | 8.3 nM | 660 nM | 620 nM |  |  |  |  |  |
| COc1cc2c(ccc(=O)n2C)cc1-c1cnc([C@H](CCCCCC(=O)c2ncco2)NC(=O)CN(C)C)[nH]1 [Example 92] |  |  |  |  | 32 nM | 64 nM |  |  |  |  |  | 1.1 nM | 4500 nM | 0.92 nM | 57 nM | 6.2 nM |
| Cc1ccc2cc(-c3c[nH]c([C@@H](N)CCCCCC(=O)c4ncco4)n3)ccc2n1 [Example 9, (S)-7-amino-7-(4-(2-methylquinolin-6-yl)-1H-imidazol-2-yl)-1-(oxazol-2-yl)heptan-1-one] |  | 2300 nM | 2000 nM | 12 nM | 160 nM | 160 nM | 2.4 nM |  |  |  |  |  |  |  |  |  |
| COc1nc2ccccc2cc1-c1cnc([C@H](CCCCCC(=O)c2ncco2)NC(=O)Cn2cccc2)[nH]1 [Example 150, N-[(1S)-1-[5-(2-methoxyquinolin-3-yl)-1H-imidazol-2-yl]-7-(1,3-oxazol-2-yl)-7-oxoheptyl]-2-(1H-pyrrol-1-yl)acetamide] |  |  |  |  | 94 nM | 500 nM |  |  |  |  |  | 1.5 nM | 2700 nM | 2.1 nM | 120 nM | 8.8 nM |
| CCN1CCC2(CC1)C[C@@H]2C(=O)N[C@@H](CCCCCC(=O)c1ncco1)c1ncc(-c2cc(OC3CCC3)ccc2F)[nH]1 [Example 182, (1S)-N-[(1S)-1-{5-[5-(cyclobutyloxy)-2-fluorophenyl]-1H-imidazol-2-yl}-7-(1,3-oxazol-2-yl)-7-oxoheptyl]-6-ethyl-6-azaspiro[2.5]octane-1-carboxamide] |  |  |  |  | 41 nM | 190 nM |  |  |  |  |  | 0.79 nM | > 900 nM | 2 nM | 5.6 nM | 9.1 nM |
| CC(C)n1ccc2cc(-c3cnc([C@@H](N)CCCCCC(=O)c4ncco4)[nH]3)ccc2c1=O [Example 17] |  |  |  |  | 650 nM | 590 nM |  |  |  |  |  | 4.1 nM | 45000 nM | 2.1 nM | 2900 nM | 17 nM |
| CN1CC(C(=O)N[C@@H](CCCCCC(=O)c2ncco2)c2ncc(-c3cc(OC4CCC4)ccc3F)[nH]2)C1 [Example 181, N-[(1S)-1-{5-[5-(cyclobutyloxy)-2-fluorophenyl]-1H-imidazol-2-yl}-7-(1,3-oxazol-2-yl)-7-oxoheptyl]-1-methylazetidine-3-carboxamide] |  |  |  |  | 84 nM | 630 nM |  |  |  |  |  | 1 nM | > 900 nM | 2.6 nM | 12 nM | 13 nM |
| COc1cc2c(ccc(=O)n2C)cc1-c1cnc([C@H](CCCCCC(=O)c2ccon2)NC(=O)CN(C)C)[nH]1 [Example 93] |  |  |  |  | 6.6 nM | 14 nM |  |  |  |  |  | 0.46 nM | 4500 nM | 0.37 nM | 3.5 nM | 2.2 nM |
| COc1cc2c(ccc(=O)n2C)cc1-c1cnc([C@H](CCCCCC(=O)c2ccon2)NC(=O)C2CN(C)C2)[nH]1 [Example 102, (S)-N-(7-(isoxazol-3-yl)-1-(5-(7-methoxy-1-methyl-2-oxo-1,2-dihydroquinolin-6-yl)-1H-imidazol-2-yl)-7-oxoheptyl)-1-methylazetidine-3-carboxamide] |  |  |  |  | 170 nM | 270 nM |  |  |  |  |  | 0.25 nM | > 900 nM | 0.24 nM | 3.1 nM | 0.78 nM |
| COc1cc2nc(C)ccc2cc1-c1cnc([C@H](CCCCCC(=O)c2ncco2)NC(=O)C2COC(c3ccccc3)CO2)[nH]1 (stereo partly drawn) [Example 172, N-[(1S)-1-[5-(7-methoxy-2-methylquinolin-6-yl)-1H-imidazol-2-yl]-7-(1,3-oxazol-2-yl)-7-oxoheptyl]-5-phenyl-1,4-dioxane-2-carboxamide] |  |  |  |  | 340 nM | 990 nM |  |  |  |  |  | 6.4 nM | > 900 nM | 20 nM | 490 nM | 100 nM |
| COc1cc2nc(C)ccc2cc1-c1cnc([C@H](CCCCCC(=O)c2ncco2)NC(=O)C2(C)CCCCO2)[nH]1 (stereo partly drawn) [Example 170, N-[(1S)-1-[5-(7-methoxy-2-methylquinolin-6-yl)-1H-imidazol-2-yl]-7-(1,3-oxazol-2-yl)-7-oxoheptyl]-2-methyltetrahydro-2H-pyran-2-carboxamide] |  |  |  |  | 160 nM | 260 nM |  |  |  |  |  | 1.6 nM | > 900 nM | 4.1 nM | 220 nM | 17 nM |
| COc1cc2nc(C)ccc2cc1-c1cnc([C@H](CCCCCC(=O)c2ncco2)NC(=O)Cn2ccc(C)n2)[nH]1 [Example 166, N-[(1S)-1-[5-(7-methoxy-2-methylquinolin-6-yl)-1H-imidazol-2-yl]-7-(1,3-oxazol-2-yl)-7-oxoheptyl]-2-(3-methyl-1H-pyrazol-1-yl)acetamide] |  |  |  |  | 77 nM | 200 nM |  |  |  |  |  | 0.56 nM | 660 nM | 1.7 nM | 75 nM | 6.2 nM |
| COc1cc2nc(C)ccc2cc1-c1cnc([C@H](CCCCCC(=O)c2ncco2)NC(=O)[C@H]2CC23CCN(C)CC3)o1 [Example 113, (S)-N-((S)-1-(5-(7-methoxy-2-methylquinolin-6-yl)oxazol-2-yl)-7-(oxazol-2-yl)-7-oxoheptyl)-6-methyl-6-azaspiro[2.5]octane-1-carboxamide] |  |  |  |  | 18 nM | 12 nM |  |  |  |  |  | 0.58 nM | 200 nM | 0.41 nM | 180 nM | 2.5 nM |

— patent US12331044B2, “Inhibitors of histone deacetylase useful for the treatment or prevention of HIV infection” (Merck Sharp & Dohme LLC, priority 2018, dated 2025)
